Laboratory results taken from the supplement of paper PMC10307832.

Columns and labels:
Assay in all cases: relative viability (nuclei count vs DMSO), 5 days (fraction); higher = more cells survive
[1] = tested on: ChaGo-K-1
Summary of the method: (§1)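 Each reported value is a median over duplicate plates. It expresses relative viability: treated-well nuclei count divided by vehicle-well nuclei count. Lung cancer cell lines in 1536-well plates were dosed by pin tool a day after seeding, alone with one drug or with a fixed anchor-drug dose plus five library-drug doses (not always all listed) in √10 steps, and nuclei were counted after 5 days.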

[2] = tested on: EMC-BAC-2
Summary of the method: as §1

[3] = tested on: LCLC-97TM1
Summary of the method: as §1

[4] = tested on: LXF-289
Summary of the method: as §1

[5] = tested on: NCI-H1395
Summary of the method: as §1

[6] = tested on: NCI-H1651
Summary of the method: as §1

[7] = tested on: NCI-H1734
Summary of the method: as §1

[8] = tested on: NCI-H1793
Summary of the method: as §1

[9] = tested on: NCI-H1915
Summary of the method: as §1

[10] = tested on: NCI-H1944
Summary of the method: as §1

[11] = tested on: NCI-H2023
Summary of the method: as §1

[12] = tested on: NCI-H2087
Summary of the method: as §1

[13] = tested on: NCI-H2126
Summary of the method: as §1

[14] = tested on: NCI-H2405
Summary of the method: as §1

[15] = tested on: NCI-H3122
Summary of the method: as §1

[16] = tested on: NCI-H322M
Summary of the method: as §1

[17] = tested on: NCI-H441
Summary of the method: as §1

[18] = tested on: NCI-H522
Summary of the method: as §1

[19] = tested on: NCI-H596
Summary of the method: as §1

[20] = tested on: NCI-H650
Summary of the method: as §1

[21] = tested on: NCI-H661
Summary of the method: as §1

[22] = tested on: NCI-H838
Summary of the method: as §1

[23] = tested on: PC-14
Summary of the method: as §1

[24] = tested on: SW 1573
Summary of the method: as §1

[25] = tested on: UMC-11
Summary of the method: as §1

Nc1cccc2c1CN(C1CCC(=O)NC1=O)C2=O (stereo unspecified) [Lenalidomide] + Nc1nc2[nH]cc(CCc3ccc(C(=O)N[C@@H](CCC(=O)O)C(=O)O)cc3)c2c(=O)[nH]1 [Pemetrexed] (partner 0.2 µM) gave a relative viability ([1]; first compound 0.253 µM) of 0.256, a relative viability ([1]; first compound 0.8 µM) of 0.255 and a relative viability ([1]; first compound 2.53 µM) of 0.274. The relative viability ([1]; first compound 8 µM) was 0.26, the relative viability ([2]; first compound 0.253 µM) was 0.437 and the relative viability ([2]; first compound 0.8 µM) was 0.392. The relative viability ([2]; first compound 2.53 µM) was 0.451, the relative viability ([2]; first compound 8 µM) was 0.463 and the relative viability ([3]; first compound 0.253 µM) was 0.175. For the same compound, the relative viability ([3]; first compound 0.8 µM) was 0.151, the relative viability ([3]; first compound 2.53 µM) was 0.18 and the relative viability ([3]; first compound 8 µM) was 0.2. The relative viability ([4]; first compound 0.253 µM) was 0.904, the relative viability ([4]; first compound 0.8 µM) was 1.13 and the relative viability ([4]; first compound 2.53 µM) was 0.939. It also gave a relative viability ([4]; first compound 8 µM) of 1.06, a relative viability ([5]; first compound 0.253 µM) of 0.875 and a relative viability ([5]; first compound 2.53 µM) of 0.948. For the same compound, the relative viability ([5]; first compound 8 µM) was 0.874, the relative viability ([6]; first compound 0.253 µM) was 0.608 and the relative viability ([6]; first compound 0.8 µM) was 0.497. The relative viability ([6]; first compound 2.53 µM) was 0.586, the relative viability ([6]; first compound 8 µM) was 0.582 and the relative viability ([7]; first compound 0.253 µM) was 0.465. The relative viability ([7]; first compound 0.8 µM) was 0.465, the relative viability ([7]; first compound 2.53 µM) was 0.433 and the relative viability ([7]; first compound 8 µM) was 0.479. For the same compound, the relative viability ([8]; first compound 0.253 µM) was 0.921, the relative viability ([8]; first compound 2.53 µM) was 1.15 and the relative viability ([8]; first compound 8 µM) was 0.411. The relative viability ([9]; first compound 0.253 µM) was 0.492, the relative viability ([9]; first compound 0.8 µM) was 0.515 and the relative viability ([9]; first compound 2.53 µM) was 0.518. The relative viability ([9]; first compound 8 µM) was 0.476, the relative viability ([10]; first compound 0.253 µM) was 0.642 and the relative viability ([10]; first compound 2.53 µM) was 0.691. It also gave a relative viability ([10]; first compound 8 µM) of 0.553, a relative viability ([11]; first compound 0.253 µM) of 0.259 and a relative viability ([11]; first compound 0.8 µM) of 0.235. For the same compound, the relative viability ([11]; first compound 2.53 µM) was 0.246, the relative viability ([11]; first compound 8 µM) was 0.256 and the relative viability ([12]; first compound 0.253 µM) was 0.65. The relative viability ([12]; first compound 2.53 µM) was 0.642, the relative viability ([12]; first compound 8 µM) was 0.671 and the relative viability ([13]; first compound 0.253 µM) was 0.655. It also gave a relative viability ([13]; first compound 0.8 µM) of 0.679, a relative viability ([13]; first compound 2.53 µM) of 0.75 and a relative viability ([13]; first compound 8 µM) of 0.634. It also gave a relative viability ([14]; first compound 0.253 µM) of 0.999, a relative viability ([14]; first compound 0.8 µM) of 0.988 and a relative viability ([14]; first compound 2.53 µM) of 1.08. For the same compound, the relative viability ([14]; first compound 8 µM) was 0.94, the relative viability ([15]; first compound 0.253 µM) was 0.205 and the relative viability ([15]; first compound 0.8 µM) was 0.202. For the same compound, the relative viability ([15]; first compound 2.53 µM) was 0.193, the relative viability ([15]; first compound 8 µM) was 0.23 and the relative viability ([16]; first compound 0.253 µM) was 0.631. The relative viability ([16]; first compound 0.8 µM) was 0.635, the relative viability ([16]; first compound 2.53 µM) was 0.664 and the relative viability ([16]; first compound 8 µM) was 0.697. For the same compound, the relative viability ([17]; first compound 0.253 µM) was 0.27, the relative viability ([17]; first compound 0.8 µM) was 0.273 and the relative viability ([17]; first compound 2.53 µM) was 0.268. It also gave a relative viability ([17]; first compound 8 µM) of 0.242, a relative viability ([18]; first compound 0.253 µM) of 1.05 and a relative viability ([18]; first compound 0.8 µM) of 0.912. The relative viability ([18]; first compound 2.53 µM) was 1.11, the relative viability ([18]; first compound 8 µM) was 0.663 and the relative viability ([19]; first compound 0.253 µM) was 0.519. The relative viability ([19]; first compound 0.8 µM) was 0.4, the relative viability ([19]; first compound 2.53 µM) was 0.538 and the relative viability ([19]; first compound 8 µM) was 0.48. It also gave a relative viability ([20]; first compound 0.253 µM) of 0.902, a relative viability ([20]; first compound 0.8 µM) of 0.914 and a relative viability ([20]; first compound 2.53 µM) of 1.07. For the same compound, the relative viability ([20]; first compound 8 µM) was 0.841, the relative viability ([21]; first compound 0.253 µM) was 0.908 and the relative viability ([21]; first compound 0.8 µM) was 0.935. It also gave a relative viability ([21]; first compound 2.53 µM) of 0.926, a relative viability ([21]; first compound 8 µM) of 0.932 and a relative viability ([22]; first compound 0.253 µM) of 0.247. It also gave a relative viability ([22]; first compound 0.8 µM) of 0.265, a relative viability ([22]; first compound 2.53 µM) of 0.241 and a relative viability ([22]; first compound 8 µM) of 0.265. It also gave a relative viability ([23]; first compound 0.253 µM) of 0.126, a relative viability ([23]; first compound 0.8 µM) of 0.151 and a relative viability ([23]; first compound 2.53 µM) of 0.139. For the same compound, the relative viability ([23]; first compound 8 µM) was 0.16, the relative viability ([24]; first compound 0.253 µM) was 0.751 and the relative viability ([24]; first compound 0.8 µM) was 0.856. It also gave a relative viability ([24]; first compound 2.53 µM) of 0.98, a relative viability ([24]; first compound 8 µM) of 0.812 and a relative viability ([25]; first compound 0.253 µM) of 0.93. The relative viability ([25]; first compound 0.8 µM) was 0.72, the relative viability ([25]; first compound 2.53 µM) was 0.84 and the relative viability ([25]; first compound 8 µM) was 0.8.
